Experimental findings from patent US20050129621A1, “Aerosol formulations for pulmonary administration of medicaments to produce a systemic effect” (Chiesi Farmaceutici S.P.A., priority 2002, published 2005) are described below.

Read-outs that look alike come from different tables or passages of the source.

A short description of series [1]: Cascade impaction studies (Andersen Cascade Impactor), aerosol delivery characteristics. The series is classed as physicochemical. The method, then: All impaction studies were conducted with formulations contained in cut edge anodised aluminium cans fitted with 50 μl or 100 μl valves. The studies were carried out using an Andersen Cascade Impactor (ACI) fitted with a USP XXII metal throat entry port.
The HFA solution formulations were discharged into the ACI through actuators having an orifice diameter from 0.14 to 0.45 mm. Deposition of the drug on each ACI plate was determined by high pressure liquid chromatography (HPLC).
MMAD values and corresponding geometric standard deviation (GSD) were calculated from plots of the cumulative percentage undersize of drug collected on each ACI plate (probit scale), against the upper cut off diameter for each respective ACI plate (log10 scale).
The following parameters were determined: the metered dose, which is the sum of the dose delivered through the Andersen apparatus plus the active ingredient residue deposited on the device actuator; the cumulative amount of active particles deposited on the various ACI stages; the amount on the actuator; the amount in the adaptor and in the throat (adp/throat); the fme particle dose or respirable dose (FPD) which is the amount of particles deposited on stages 3 to filter of the ACI and corresponds to the amount of particles of size less than 4.7 μm; the fine particle fraction or respirable fraction which is the ratio between the respirable dose and the dose delivered ex-actuator.
The cans were provided with actuators with an orifice diameter of 0.22 mm.
Two ACI deposition determinations were performed with each formulation. Twenty shots were discharged into the ACI.
The cans were provided with actuators with an orifice diameter of 0.14 mm.
Two ACI deposition determinations were performed with the formulation. Ten shots were discharged into the ACI.

A short description of series [2]: Solubility studies in HFA pMDI formulations (visual assessment for crystal growth). The method, then:
The assembly of the pMDI cans was carried out using hand operated crimping and filling equipment. Formulations were prepared by accurately weighing the required quantity of drug into the can or vial. The appropriate volume of ethanol and the other co-solvent if required in the formulation, was then added. The valve was crimped onto the vial/can and the assembled vial/can was ultra-sonicated for approximately 10 minutes. The HFA propellant was filled through the valve and the pMDI was ultra-sonicated for a further 10 minutes. […] Final compositions were calculated as percentage w/v for the active ingredient and as percentage w/w for the co-solvents.
All solubility investigations were conducted in plastic coated glass pMDI vials fitted with continuous spray valves. Once produced the medicament-HFA solution pMDIs were stored in refrigerator at 4° C. (±0.1° C.). The pMDI vials were removed periodically and the vials assessed visually with the aid of a polarized light unit for crystal growth.

Series [3] is described as follows: Stability study of pMDI formulations in coated aluminum cans, HPLC. To be noted: 25° C., six months. The method, then: The recovery of diisobutyryl apomorphine was determined by HPLC.
The leuprolide acetate content was determined by HPLC.

[4] abbreviates: 0.04% w/v (40 μg/100 μl) in HFA 134a, 15% w/w ethanol, 2% w/w water, actuator orifice 0.14 mm.
[5] abbreviates: 0.08% w/v (80 μg/100 μl) in HFA 134a, 18% w/w ethanol, 3% w/w water, actuator orifice 0.14 mm.
Setting [6] is: 0.5% and 1% w/v in HFA 134a, 5% w/w ethanol, 0.1% w/w glycerol, actuator orifice 0.22 mm.

Take `CCNC(=O)[C@@H]1CCCN1C(=O)[C@H](CCCNC(=N)N)NC(=O)[C@H](CC(C)C)NC(=O)[C@@H](CC(C)C)NC(=O)[C@H](Cc1ccc(O)cc1)NC(=O)[C@H](CO)NC(=O)[C@H](Cc1c[nH]c2ccccc12)NC(=O)[C@H](Cc1c[nH]cn1)NC(=O)[C@@H]1CCC(=O)N1` [leuprolide acetate]: in series [1] (setting [4]), the MMAD entry was “about 1.0 μm”, the “amount of active particles of sizes from 0.43 to 3.3 μm” value (“amount of active particles of sizes” below) is on record as not below 61% and the “fine particle fraction (FPF)” value was “at least 72%”. In addition, in series [1] (setting [5]), the MMAD result was “about 1.3 μm”, the “amount of active particles of sizes” value is recorded as not below 52% and the “fine particle fraction (FPF)” value is given as “at least 59%”. In series [2], the “change of solubility when water was added” value is given as “significant increase” and the “concentration at which formulations are soluble” value was “up to 0.26 % w/v”.
Turning to `CC(C)C(=O)Oc1ccc2c(c1OC(=O)C(C)C)-c1cccc3c1[C@@H](C2)N(C)CC3` [diisobutyryl apomorphine], in series [1] (setting [6]), the MMAD result is listed as “about 2.0 μm”, the “amount of active particles of sizes” value was not below 60% and the “fine particle fraction (FPF)” value is given as 70-75%. The “concentration at which formulations are soluble” value in series [2] (in HFA 134a or HFA 227, various percentages of ethanol, stored at 4° C.) was “up to 1 % w/v”. In addition, the degradation result in series [3] (formulation of Example 1, coated aluminum cans upright and inverted) is reported as “minimal degradation”. Besides, the “difference between cans stored upright and inverted” value in series [3] (formulation of Example 1, coated aluminum cans) is recorded as “no significant difference”.
